Measured values: ChEMBL document CHEMBL3632623, “Discovery of Imidazo[1,2-α][1,8]naphthyridine Derivatives as Potential HCV Entry Inhibitor” (ACS Med Chem Lett, 2015)
Calls of active or inactive are those of the source. No cut-off for these calls is given here.

Legend:
[1] = Cytotoxicity against human Huh7.5.1 cells; type: cell-based, Huh-7
Hepatitis C virus [2] = test: Antiviral activity against HCV genotype 2a JFH-1 infected in human Huh7.5.1 cells after 2 hrs by luciferase assay; type: functional, organism-based, Hepacivirus hominis; conditions: JFH-1, Huh-7, 2 h
Hepatitis C virus [3] = test: Antiviral activity against HCV genotype 1b Con-1 infected in human HuH7 cells after 72 hrs by luciferase based replicon assay; type: functional, organism-based; conditions: Hepacivirus hominis; isolate Con1; Huh-7
Hepatitis C virus [4] = test: Ratio of RO8191 EC50 to compound EC50 for HCV genotype 2a JFH-1 infected in human Huh7.5.1 cells after 2 hrs by luciferase assay; type: functional, Hepacivirus hominis, Huh-7
Vero = test: Activation of ISRE reporter gene in African green monkey Vero cells at 4 to 100 uM after 24 hrs by luciferase assay; type: functional, cell-based; conditions: Chlorocebus sabaeus
Hepatitis C virus [5] = test: Antiviral activity against HCV; type: functional, organism-based, Hepacivirus hominis
HepG2 = test: Activation of ISRE reporter gene in human HepG2 cells at 2 to 50 uM after 24 hrs by luciferase assay; type: functional, cell-based
Huh-7 [6] = test: Activation of ISRE reporter gene in human HuH7 cells at 2 to 50 uM after 24 hrs by luciferase assay; type: functional, cell-based
Huh-7 [7] = test: Activation of ISRE reporter gene in human Huh7.5.1 cells at 2 to 50 uM after 24 hrs by luciferase assay; type: functional, cell-based
Hepatitis C virus [8] = test: Antiviral activity against HCV genotype 2a JFH-1 in human Huh7.5.1 cells assessed as reduction of viral entry up to 3 hrs by luciferase assay; type: functional, organism-based; conditions: Hepacivirus hominis, Huh-7
Hepatitis C virus [9] = test: Antiviral activity against HCV genotype 2a JFH-1 in human Huh7.5.1 cells assessed as inhibition of viral attachment to heparan sulfate proteoglycans at 10 nM at 4 degC by luciferase assay; type: functional, organism-based; conditions: Hepacivirus hominis, Huh-7
[10] = Cytotoxicity against human HuH7 cells; type: cell-based, Huh-7
Hepatitis C virus [11] = test: Antiviral activity against HCV genotype 2a JFH-1 in human Huh7.5.1 cells assessed as inhibition of post-attachment infection phase at 0.2 uM after 3 days by luciferase assay; type: functional, Hepacivirus hominis; conditions: JFH-1, Huh-7, 72 h
[12] = Cytotoxicity against human GHOST cells; type: cell-based
[13] = AUC ( 0 to infinity) in Wistar rat at 100 mg/kg, po; type: ADME, organism-based; set-up: dose 100 mg/kg, route oral, time infinity; conditions: in vivo
[14] = test system: Human immunodeficiency virus; test: Antiviral activity against HIV infected in human Ghost cells; type: functional, organism-based; conditions: Human immunodeficiency virus 1, Ghost
[15] = Tmax in Wistar rat at 100 mg/kg, po; type: ADME, organism-based; conditions: in vivo
[16] = AUC ( 0 to 24 hrs) in Wistar rat at 100 mg/kg, po; type: ADME, organism-based; set-up: time < 24 hr, dose 100 mg/kg, route oral; conditions: in vivo
Enterovirus A71 = test: Antiviral activity against EV71 infected in human RD cells; type: functional, organism-based; conditions: Enterovirus A
[17] = Cmax in Wistar rat at 100 mg/kg, po; type: ADME, organism-based; set-up: dose 100 mg/kg, route oral; conditions: in vivo
Hepatitis B virus = test: Antiviral activity against HBV infected in human HepAD38 cells; type: functional, organism-based
Hepatitis C virus [18] = test: Antiviral activity against HCV genotype 2a JFH-1 in human Huh7.5.1 cells assessed as inhibition of viral attachment to heparan sulfate proteoglycans at 0.2 uM at 4 degC by luciferase assay; type: functional, organism-based; conditions: Hepacivirus hominis, Huh-7
[19] = Cytotoxicity against human HepAD38 cells; type: cell-based
[20] = Elimination half life in Wistar rat at 100 mg/kg, po; type: ADME, organism-based; conditions: in vivo, read-out: beta t1/2 (converted)
[21] = test system: Middle East respiratory syndrome-related coronavirus; test: Antiviral activity against MERS infected in human HuH7 cells; type: functional, cell-based; conditions: Huh-7
[22] = Cytotoxicity against human RD cells; type: cell-based

SMILES: COC(=O)C1CCCN(C(=O)c2cn3c(ccc4c(C(F)(F)F)cc(C(F)(F)F)nc43)n2)C1 (centres undefined)
- CC50 [1]: > 25 µM
- EC50 (Hepatitis C virus [2]): 2.54 µM

SMILES: O=C(c1cn2c(ccc3c(C(F)(F)F)cc(C(F)(F)F)nc32)n1)N1CCNCC1
- Activity (Hepatitis C virus [3]): inactive
- CC50 [1]: > 25 µM
- Ratio EC50 (Hepatitis C virus [4]): 5
- EC50 (Hepatitis C virus [2]): 0.046 µM

SMILES: FC(F)(F)c1cc(C(F)(F)F)c2ccc3nc(-c4nnco4)cn3c2n1
- Activity (Vero): Active
- EC50 (Hepatitis C virus [5]): 0.203 µM
- Activity (Hepatitis C virus [3]): Active
- Activity (HepG2): Active
- Activity (Huh-7 [6]): Active
- Activity (Huh-7 [7]): Active

SMILES: O=C(c1cn2c(ccc3c(C(F)(F)F)cc(C(F)(F)F)nc32)n1)N1CCC(CO)CC1
- CC50 [1]: > 25 µM
- EC50 (Hepatitis C virus [2]): > 20 µM

SMILES: NC1CCCCC1NC(=O)c1cn2c(ccc3c(C(F)(F)F)cc(C(F)(F)F)nc32)n1 (centres undefined)
- Activity (Hepatitis C virus [3]): inactive
- CC50 [1]: > 25 µM
- Ratio EC50 (Hepatitis C virus [4]): 5
- EC50 (Hepatitis C virus [2]): 0.048 µM

SMILES: NCCCCNC(=O)c1cn2c(ccc3c(C(F)(F)F)cc(C(F)(F)F)nc32)n1
- CC50 [1]: > 25 µM
- EC50 (Hepatitis C virus [2]): 1.13 µM

SMILES: Nc1cccc(NC(=O)c2cn3c(ccc4c(C(F)(F)F)cc(C(F)(F)F)nc43)n2)c1
- CC50 [1]: > 25 µM
- EC50 (Hepatitis C virus [2]): > 20 µM

SMILES: NCCCNC(=O)c1cn2c(ccc3c(C(F)(F)F)cc(C(F)(F)F)nc32)n1
- CC50 [1]: > 25 µM
- EC50 (Hepatitis C virus [2]): 1.3 µM

SMILES: NC1CCN(C(=O)c2cn3c(ccc4c(C(F)(F)F)cc(C(F)(F)F)nc43)n2)C1 (centres undefined)
- Activity (Hepatitis C virus [3]): inactive
- CC50 [1]: > 25 µM
- Ratio EC50 (Hepatitis C virus [4]): 5
- EC50 (Hepatitis C virus [2]): 0.021 µM

SMILES: CN(C)CCNC(=O)c1cn2c(ccc3c(C(F)(F)F)cc(C(F)(F)F)nc32)n1
- Activity (Hepatitis C virus [3]): inactive
- CC50 [1]: > 25 µM
- EC50 (Hepatitis C virus [2]): 0.069 µM

SMILES: CNCCN(C)C(=O)c1cn2c(ccc3c(C(F)(F)F)cc(C(F)(F)F)nc32)n1
- Activity (Hepatitis C virus [3]): inactive
- CC50 [1]: > 25 µM
- Ratio EC50 (Hepatitis C virus [4]): 5
- EC50 (Hepatitis C virus [2]): 0.02 µM

SMILES: O=C(c1cn2c(ccc3c(C(F)(F)F)cc(C(F)(F)F)nc32)n1)N1CCCC1CO (centres undefined)
- CC50 [1]: > 25 µM
- EC50 (Hepatitis C virus [2]): 16.6 µM

SMILES: CC1CN(C(=O)c2cn3c(ccc4c(C(F)(F)F)cc(C(F)(F)F)nc43)n2)CCN1 (centres undefined)
- Activity (Hepatitis C virus [3]): inactive
- CC50 [1]: > 25 µM
- Ratio EC50 (Hepatitis C virus [4]): 5
- EC50 (Hepatitis C virus [2]): 0.067 µM

SMILES: CN1CCN(C(=O)c2cn3c(ccc4c(C(F)(F)F)cc(C(F)(F)F)nc43)n2)CC1
- Activity (Hepatitis C virus [3]): inactive
- CC50 [1]: > 25 µM
- EC50 (Hepatitis C virus [2]): 0.159 µM

SMILES: NC1CCN(C(=O)c2cn3c(ccc4c(C(F)(F)F)cc(C(F)(F)F)nc43)n2)CC1
- Activity (Hepatitis C virus [3]): inactive
- CC50 [1]: > 25 µM
- EC50 (Hepatitis C virus [2]): 0.102 µM

SMILES: COC(=O)CN1CCN(C(=O)c2cn3c(ccc4c(C(F)(F)F)cc(C(F)(F)F)nc43)n2)CC1
- CC50 [1]: > 25 µM
- EC50 (Hepatitis C virus [2]): 13.2 µM

SMILES: CO/C1=C\C(C)=C\[C@@H](C)[C@@H](O)[C@@H](C)C/C(C)=C/C=C/[C@H](OC)[C@@H]([C@@H](C)[C@@H](O)[C@H](C)[C@@]2(O)C[C@@H](O)[C@H](C)[C@@H](C(C)C)O2)OC1=O
- inhibition (Hepatitis C virus [8]): Active
- inhibition (Hepatitis C virus [9]): inactive

SMILES: O=C(c1cn2c(ccc3c(C(F)(F)F)cc(C(F)(F)F)nc32)n1)N1CCOCC1
- CC50 [1]: > 25 µM
- EC50 (Hepatitis C virus [2]): > 20 µM

SMILES: O=C(c1cn2c(ccc3c(C(F)(F)F)cc(C(F)(F)F)nc32)n1)N1CCC(O)CC1
- CC50 [1]: > 25 µM
- EC50 (Hepatitis C virus [2]): > 20 µM

SMILES: CCOC(=O)[C@@H](CCCCN)NC(=O)c1cn2c(ccc3c(C(F)(F)F)cc(C(F)(F)F)nc32)n1
- CC50 [1]: > 25 µM
- EC50 (Hepatitis C virus [2]): 0.14 µM

SMILES: Nc1ccc(NC(=O)c2cn3c(ccc4c(C(F)(F)F)cc(C(F)(F)F)nc43)n2)cc1
- CC50 [1]: > 25 µM
- EC50 (Hepatitis C virus [2]): > 20 µM

SMILES: NCCNC(=O)c1cn2c(ccc3c(C(F)(F)F)cc(C(F)(F)F)nc32)n1
- CC50 [10]: > 20 µM
- inhibition at 0.2 µM (Hepatitis C virus [11]): 90%
- CC50 [12]: > 20 µM
- AUC(0-inf) [13]: 19.1 µM·h
- EC50 [14]: > 20 µM
- Tmax [15]: 2.17 h
- Activity (Vero): inactive
- inhibition (Hepatitis C virus [8]): Active
- AUC(0-t) at 24 h [16]: 19 µM·h
- EC50 (Enterovirus A71): > 20 µM
- Cmax [17]: 2050 nM
- EC50 (Hepatitis B virus): > 20 µM
- Activity (Hepatitis C virus [3]): inactive
- CC50 [1]: > 25 µM
- Activity (HepG2): inactive
- inhibition (Hepatitis C virus [18]): Active
- Activity (Huh-7 [6]): inactive
- CC50 [19]: > 20 µM
- Ratio EC50 (Hepatitis C virus [4]): 5
- EC50 (Hepatitis C virus [2]): 0.017 µM
- half-life [20]: 2.93 h
- EC50 [21]: > 20 µM
- Activity (Huh-7 [7]): inactive
- CC50 [22]: > 20 µM

SMILES: O=C1CN(C(=O)c2cn3c(ccc4c(C(F)(F)F)cc(C(F)(F)F)nc43)n2)CCN1
- CC50 [1]: > 25 µM
- EC50 (Hepatitis C virus [2]): 12.5 µM

SMILES: Nc1ccccc1NC(=O)c1cn2c(ccc3c(C(F)(F)F)cc(C(F)(F)F)nc32)n1
- CC50 [1]: > 25 µM
- EC50 (Hepatitis C virus [2]): > 20 µM

SMILES: COC(=O)C1CCN(C(=O)c2cn3c(ccc4c(C(F)(F)F)cc(C(F)(F)F)nc43)n2)CC1
- CC50 [1]: > 25 µM
- EC50 (Hepatitis C virus [2]): 12.7 µM
